Like-named read-outs stand apart in the source and are kept apart here.
What was measured:
[1] = system: P. falciparum 3D7 parasites; experiment: P. falciparum growth inhibition assay, 2-cycle (120 h treatment), delayed-death screen and dose-response; format: cell-based, Plasmodium falciparum; conditions: for activity at 2 µg/mL: Plasmodium falciparum
[2] = system: P. falciparum 3D7 parasites; experiment: P. falciparum growth inhibition assay, 1-cycle (72 h treatment), SYBR DNA staining (library screen at 2 μg/mL and dose-response); format: cell-based, Plasmodium falciparum; conditions: for activity at 2 µg/mL: Plasmodium falciparum
[3] = system: T. gondii RH strain (RH-Tub-eYFP) tachyzoites; experiment: microbe, parasite or virus in culture; format: cell-based, Toxoplasma gondii; conditions: 72 h; for percent parasite growth at 2 µg/mL: Toxoplasma gondii
[4] = T. gondii, screen at 2 μg/mL, replicate 1, read-out: Tg_72h_%Growth_Rep1
[5] = T. gondii, screen at 2 μg/mL, replicate 2, read-out: Tg_72h_%Growth_Rep2
[6] = P. falciparum, 120 h, screen at 2 μg/mL, replicate 1
[7] = P. falciparum, 120 h, screen at 2 μg/mL, replicate 2
[8] = P. falciparum, 72 h, screen at 2 μg/mL, replicate 1
[9] = P. falciparum, 72 h, screen at 2 μg/mL, replicate 2
[10] = T. gondii, screen at 2 μg/mL, replicate 1
[11] = T. gondii, screen at 2 μg/mL, replicate 2

CCO[C@@H]1[C@@H](OC)[C@H](C)O[C@@H](O[C@H]2C[C@H]3[C@@H]4C=C5C(=O)[C@H](C)[C@@H](O)CCC[C@H](CC)OC(=O)C[C@H]5[C@@H]4C=C(C)[C@@H]3C2)[C@@H]1OC [spinosyn L 17-pseudoaglycone, 3'-Ethoxy-]
Pf_120h_%Growth_Rep1 ([1]; P. falciparum, 120 h, parasite screen 2 μg/mL, % growth, replicate 1): 6.02%
Pf_120h_%Growth_Rep2 ([1]; P. falciparum, 120 h, parasite screen 2 μg/mL, % growth, replicate 2): 1.27%
Pf_72h_%Growth_Rep1 ([2]; P. falciparum, 72 h, parasite screen 2 μg/mL, % growth, replicate 1): 17.82%
Pf_72h_%Growth_Rep2 ([2]; P. falciparum, 72 h, parasite screen 2 μg/mL, % growth, replicate 2): 8.15%
Tg_72h_%Growth_Rep1 ([3]; T. gondii, parasite screen 2 μg/mL, % growth, replicate 1): 97.87%
Tg_72h_%Growth_Rep2 ([3]; T. gondii, parasite screen 2 μg/mL, % growth, replicate 2): 88.47%

CCC(C)C1OC2(CCC1C)CC1CC(CC=C(C)C(OC3CC(OC)C(OC4CC(OC)C(O)C(C)O4)C(C)O3)C(C)C=CC=C3COC4C(O)C(C)C=C(C(=O)O1)C34O)O2 (stereo not drawn) [BIA-I1581]
Pf_120h_%Growth_Rep1 ([1]; P. falciparum 3D7, 120 h, library screen at 2 μg/mL, % growth, replicate 1): 16.87%
Pf_120h_%Growth_Rep2 ([1]; P. falciparum 3D7, 120 h, library screen at 2 μg/mL, % growth, replicate 2): 11.19%
Pf_72h_%Growth_Rep1 ([2]; P. falciparum 3D7, 72 h, library screen at 2 μg/mL, % growth, replicate 1): 5.59%
Pf_72h_%Growth_Rep2 ([2]; P. falciparum 3D7, 72 h, library screen at 2 μg/mL, % growth, replicate 2): 2.07%
Tg_72h_%Growth_Rep1 ([3]; T. gondii RH, library screen at 2 μg/mL, % growth, replicate 1): 33.19%
Tg_72h_%Growth_Rep2 ([3]; T. gondii RH, library screen at 2 μg/mL, % growth, replicate 2): 43.03%

CC[C@H]1OC(=O)[C@H](C)[C@@H](O[C@H]2C[C@@](C)(OC)[C@@H](O)[C@H](C)O2)[C@H](C)[C@@H](O[C@@H]2O[C@H](C)C[C@H](N(C)C)[C@H]2O)[C@](C)(OC)C[C@@H](C)C(=O)[C@H](C)[C@@H](O)[C@]1(C)O [Clarithromycin]
activity at 2 µg/mL ([1]; 3D7, P. falciparum, 120 h, screen at 2 μg/mL, replicate 1, read-out: Pf_120h_%Growth_Rep1): 31.2%
activity at 2 µg/mL ([1]; 3D7, P. falciparum, 120 h, screen at 2 μg/mL, replicate 2, read-out: Pf_120h_%Growth_Rep2): 16.9%
activity at 2 µg/mL ([2]; 3D7, P. falciparum, 72 h, screen at 2 μg/mL, replicate 1, read-out: Pf_72h_%Growth_Rep1): 74.8%
activity at 2 µg/mL ([2]; 3D7, P. falciparum, 72 h, screen at 2 μg/mL, replicate 2, read-out: Pf_72h_%Growth_Rep2): 62.6%
percent parasite growth at 2 µg/mL [3, 4]: 40.9%
percent parasite growth at 2 µg/mL [3, 5]: 40.8%

CC(C)[C@@H]1NC(=O)[C@@H]2CCCN2C1=O [Cyclo(L-Pro-L-Val)]
Pf_120h_%Growth_Rep1 [1, 6]: 101.90%
Pf_120h_%Growth_Rep2 [1, 7]: 92.75%
Pf_72h_%Growth_Rep1 [2, 8]: 85.07%
Pf_72h_%Growth_Rep2 [2, 9]: 82.22%
Tg_72h_%Growth_Rep1 [3, 10]: 147.92%
Tg_72h_%Growth_Rep2 [3, 11]: 100.59%

COC(=O)[C@]1(Cc2ccc(O)c(CC=C(C)C)c2)OC(=O)C(O)=C1c1ccc(O)cc1 [Butyrolactone I]
activity at 2 µg/mL ([1]; 3D7, 120 h, P. falciparum, 120 h, screen at 2 μg/mL, replicate 1, read-out: Pf_120h_%Growth_Rep1): 147%
activity at 2 µg/mL ([1]; 3D7, 120 h, P. falciparum, 120 h, screen at 2 μg/mL, replicate 2, read-out: Pf_120h_%Growth_Rep2): 92.6%
activity at 2 µg/mL ([2]; 3D7, 72 h, P. falciparum, 72 h, screen at 2 μg/mL, replicate 1, read-out: Pf_72h_%Growth_Rep1): 72.4%
activity at 2 µg/mL ([2]; 3D7, 72 h, P. falciparum, 72 h, screen at 2 μg/mL, replicate 2, read-out: Pf_72h_%Growth_Rep2): 88.5%
percent parasite growth at 2 µg/mL [3, 4]: 85.8%
percent parasite growth at 2 µg/mL [3, 5]: 88.7%

CCCCCCCCCCCC(=O)N[C@H]1CCOC1=O [Dodecanoyl-L-homoserine lactone]
Pf_120h_%Growth_Rep1 ([1]; library screen at 2 μg/mL, 120 h, % growth, replicate 1): 96.32%
Pf_120h_%Growth_Rep2 ([1]; library screen at 2 μg/mL, 120 h, % growth, replicate 2): 89.02%
Pf_72h_%Growth_Rep1 ([2]; library screen at 2 μg/mL, 72 h, % growth, replicate 1): 84.60%
Pf_72h_%Growth_Rep2 ([2]; library screen at 2 μg/mL, 72 h, % growth, replicate 2): 89.07%
Tg_72h_%Growth_Rep1 ([3]; library screen at 2 μg/mL, % growth, replicate 1): 110.87%
Tg_72h_%Growth_Rep2 ([3]; library screen at 2 μg/mL, % growth, replicate 2): 103.60%

O=C1N[C@@H](C[C@@]2(O)c3ccccc3N3C(=O)C[C@@H](c4ccccc4)N[C@H]32)C(=O)N[C@H]1Cc1ccccc1 [Citreoindole]
2) Growth (%) at 120 h ([1]; P. falciparum, 2 μg/mL, 120 h): 9.52%
Pf_120h_%Growth_Rep1 [1, 6]: 10.68%
Pf_120h_%Growth_Rep2 [1, 7]: 8.36%
3) Fold change (72 h/120 h) ([1]; P. falciparum, growth at 72 h / growth at 120 h, 2 μg/mL): 2.9
1) Growth (%) at 72 h ([2]; P. falciparum, 2 μg/mL, 72 h): 27.30%
Pf_72h_%Growth_Rep1 [2, 8]: 25.03%
Pf_72h_%Growth_Rep2 [2, 9]: 29.57%
Tg_72h_%Growth_Rep1 [3, 10]: 97.80%
Tg_72h_%Growth_Rep2 [3, 11]: 86.03%
